# According to patent publication US20230381162A1, “TREATMENTS OF ANGIOEDEMA” (KALVISTA PHARMACEUTICALS LIMITED, priority 2020, published 2023):
# Tests used:
# [1] = higher doses; cited from earlier work
# [2] = Phase 1 single ascending dose study: plasma concentrations (PK); assay type: in vivo, human; conditions: oral capsule, fasted, 5 mg to 600 mg
# Experimental: (§1) This study was a randomized, double-blind, placebo-controlled single ascending dose (SAD) and crossover studies for food effect and capsule/tablet formulations.
# Samples for pharmacokinetic (PK) and PD assessment were taken at repeated intervals over 48 hours.
# Plasma samples used for PK assessment were analysed using a validated liquid chromatography tandem mass spectrometry (LC MS/MS) method.
# [3] = Phase 1 single ascending dose study: safety and tolerability; assay type: in vivo, human; conditions: phase I trial, healthy males
# Source text: as §1
# [4] = test system: angioedema attacks in adult subjects with hereditary angioedema type I or II; assay: Phase 2 study Part 2: on-demand treatment of HAE attacks, efficacy; assay type: in vivo, human; conditions: 600 mg
# Experimental: This was a phase 2, two-part, two-sequence, two-period (2×2) cross-over clinical trial. Subjects with HAE type I or II were recruited through HAE treatment centres in Europe and US.
# (§2) In Part 2, the subjects were randomized 1:1 to 2 treatment sequences. This part of the study was conducted away from the clinic or hospital. In Sequence 1 (study arm 1) subjects received a single dose of 600 mg of the compound to treat the first eligible HAE attack. Following resolution of this attack, subjects received a single dose of placebo to treat the second eligible HAE attack.
# In Sequence 2 (study arm 2) subjects received a single dose of placebo to treat the first eligible HAE attack. Following resolution of this attack, subjects received a single dose of 600 mg of the compound to treat the second eligible HAE attack.
# Laryngeal or facial attacks were not eligible for treatment. HAE attacks must have been treated within the first hour of onset and before reaching severe on the global attack severity scale. Subjects must also have been able to identify the start of a HAE attack. Upon onset of the eligible HAE attack, subjects notified the dedicated study physician or qualified designee with a description of the HAE attack. The dedicated study physician or qualified designee confirmed eligibility of the HAE attack and agreed to study drug being administered. HAE attacks required documentation, on the Subject Diary, of attack location, attack symptoms, time of onset, attack severity, and time of last substantial meal prior to dosing. Subjects took study drug, as instructed, and completed timed assessments of their HAE attack symptoms for a 48 h period as documented below in Table 3. The dedicated study physician or qualified designee contacted the subject within 24 h of the eligible HAE attack to confirm the subject's safety and wellbeing. Subjects were instructed to contact the dedicated study physician or qualified designee in case of any safety concerns. In the case of hypersensitivity, subjects contacted the dedicated study physician or qualified designee or contact the nearest emergency service. The dedicated study physician or qualified designee was available 24 h/day and 7 days/week to receive subject calls.
# Time to use of conventional attack treatment was assessed. The subject diary captured the efficacy endpoints including time to use of conventional attack treatment and HAE attack severity.
# Overall HAE attack severity was assessed on a 5-point Likert scale (5LS) scored as none, mild, moderate, severe and very severe.
# Change in HAE attack severity was assessed using a 7-point transition question (7TQ), scored as Much better/Better/A little better/No change/A little worse/Worse/Much worse.
# The type of HAE attack symptoms (abdominal pain, skin pain and skin swelling) was each assessed on a 100 mm visual analogue scale (VAS) anchored at 0 (none) and 100 (very severe).
# The primary endpoint, time to use of conventional attack treatment, was analyzed using a generalization of Gehan's test proposed by Feingold and Gillespie (1996) (Crossover trials with censored data. Statistics in Medicine 1996; 15(10): 953-967) to reflect the repeat measures on each subject. Subjects were treated as censored if no worsening occurs within 12 h of study drug.
# The proportion of HAE attacks that worsen by one level or more on the 5LS or that require conventional attack treatment within 12 h of study drug was analyzed using Prescott's test (1981) (The comparison of success rates in cross-over trials in the presence of an order effect. Applied Statistics 1981; 30: 9-15) to compare the treatment arms.
# A similar approach to that used for the primary endpoint was followed for the analysis of the time between study drug and HAE attack worsening by one level or more on the 5LS or use of conventional attack treatment, whichever comes first within 12 h. […]
# [5] = Phase 2 study: safety (adverse events); assay type: in vivo, human
# Experimental: In Part 1, subjects received a single oral dose of 600 mg of the compound to investigate the safety, PK and PD of the compound during the intercritical period between HAE attacks.
# as §2
# Safety Variables: • AEs, including serious adverse events (SAEs). • Laboratory test results (clinical chemistry, hematology, coagulation, and urinalysis). • Vital signs (SBP, DBP, PR, RR, body temperature). • Physical examination findings. • ECG results. • Pregnancy test (female subjects of child-bearing potential).
# AEs were coded using the Medical Dictionary for Regulatory Activities (MedDRA) dictionary (v21.0 or higher) and classified by preferred term and system organ class (SOC). Listings of treatment-emergent adverse events (TEAEs), serious TEAEs, and TEAEs causing premature discontinuation will be provided by sequence group, and further classified by TEAE severity and relationship to study drug.
# [6] = Phase 1 multiple dose study in healthy adult subjects: safety, ECG; assay type: in vivo, human; conditions: 3 x 600 mg every 8, 4 or 2 hours, total 1800 mg
# Experimental: This is a phase 1, double-blind, placebo-controlled, multiple-dose, multiple-cohort study to evaluate safety and tolerability of the compound as well as of the ECG effects of the compound formulated as 100 mg Film Coated Tablets in healthy adult male and female subjects.
# During the study, oral doses of 600 mg of the compound as Film Coated Tablets (six 100 mg tablets) or 6 matching placebo tablets will be administered once every 8 hours (Cohort 1) every 4 hours (Cohort 2), or every 2 hours (Cohort 3 and 4) to healthy adult male and female subjects up to a total dose of 1800 mg. In Cohorts 1, 2 and 3, 6 subjects will receive the compound as 100 mg Film Coated Tablets and 2 subjects will receive the placebo for a total of 8 subjects per cohort. In Cohort 4, 12 subjects will receive the compound as 100 mg Film Coated Tablets and 6 subjects will receive the placebo for a total of 18 subjects.
# A Holter monitor will be attached to each subject in order to continuously record ECGs. The monitor will be attached 1 hour before the first dose and will remain attached until after the final blood sample collection. The electrodes for the Holter monitor will be checked by a member of the clinic staff at appropriate intervals to ensure they are attached.
# [7] = target: T1, Human plasma kallikrein (Homo sapiens, UniProt P03952); assay: Plasma kallikrein inhibitory activity in vitro (purified enzyme, fluorogenic substrate); assay type: biochemical
# T1 construct: purchased Protogen
# T1 sequence (P03952 391-638 limits assumed): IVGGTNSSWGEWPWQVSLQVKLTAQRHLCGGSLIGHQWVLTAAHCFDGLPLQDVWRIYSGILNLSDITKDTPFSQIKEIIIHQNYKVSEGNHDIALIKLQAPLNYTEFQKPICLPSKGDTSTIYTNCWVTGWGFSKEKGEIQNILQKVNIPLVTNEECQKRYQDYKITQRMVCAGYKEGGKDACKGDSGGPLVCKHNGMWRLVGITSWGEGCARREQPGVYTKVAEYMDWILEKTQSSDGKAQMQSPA
# T1 sequence (P03952 20-390 partner limits assumed): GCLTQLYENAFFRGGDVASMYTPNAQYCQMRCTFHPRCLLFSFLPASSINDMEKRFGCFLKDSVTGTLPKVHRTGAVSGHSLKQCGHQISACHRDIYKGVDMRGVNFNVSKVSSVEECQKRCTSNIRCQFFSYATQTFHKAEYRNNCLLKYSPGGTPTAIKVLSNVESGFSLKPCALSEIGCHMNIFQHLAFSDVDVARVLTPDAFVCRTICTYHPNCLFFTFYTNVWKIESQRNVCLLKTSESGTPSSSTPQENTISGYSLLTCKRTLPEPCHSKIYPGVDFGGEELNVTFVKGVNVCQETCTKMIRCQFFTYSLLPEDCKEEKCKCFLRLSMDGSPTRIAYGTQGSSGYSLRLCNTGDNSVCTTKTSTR
# Experimental: Human plasma kallikrein (Protogen) was incubated at 25° C. with the fluorogenic substrate H-DPro-Phe-Arg-AFC and various concentrations of the test compound. Residual enzyme activity (initial rate of reaction) was determined by measuring the change in […] at 410 nm and the IC50 value for the test compound was determined.
# [8] = target: purified PKa (Homo sapiens, UniProt P03952); assay: Rate of formation of the enzyme-inhibitor complex (Kon) with purified PKa; assay type: biochemical
# Chain of purified PKa (P03952 391-638 limits assumed): as the sequence (P03952 391-638 limits assumed) above
# Chain of purified PKa (P03952 20-390 partner limits assumed): as the sequence (P03952 20-390 partner limits assumed) above
# Experimental: The rate of formation of the enzyme-inhibitor complex (Kon) was determined using purified PKa rapidly mixed with a solution containing fluorogenic substrate and a concentration range of inhibitor. The time-dependent establishment of inhibition was then used to calculate the rate of formation of the enzyme-inhibitor complex for each concentration of inhibitor. The Kon was calculated by plotting the rate of inhibition versus the inhibitor concentration. Data in Table 1 are presented in μM^−1 sec^−1.
# [9] = target: PKa in DXS-activated plasma (Homo sapiens, UniProt P03952); assay: Catalytic activity of PKa in dextran sulfate-activated plasma (inhibitor added in vitro); assay type: biochemical; conditions: read-out: IC50 plasma enzyme
# Chain of PKa in DXS-activated plasma (P03952 391-638 limits assumed): as the sequence (P03952 391-638 limits assumed) above
# Chain of PKa in DXS-activated plasma (P03952 20-390 partner limits assumed): as the sequence (P03952 20-390 partner limits assumed) above
# Experimental: Catalytic activity of PKa in dextran sulfate-activated (DXS, Sigma; 10 μg/ml) plasma (1:4 diluted or undiluted, VisuCon-F control plasma, Affinity Biologicals Inc) was determined by the time-dependent hydrolysis of fluorogenic substrate.
# [10] = target: T2, plasma kallikrein activity in pre-activated plasma (Homo sapiens, UniProt P03952); assay: Inhibition of enzyme activity of pre-activated undiluted plasma (inhibitor added after DXS); assay type: biochemical; conditions: compound 300, 1000, 3000 nM; C1-INH 3000 nM; added 3.5 minutes post DXS (FIG. 3B)
# T2 construct: from tissue
# T2 sequence (P03952 391-638 limits assumed): as the sequence (P03952 391-638 limits assumed) above
# T2 sequence (P03952 20-390 partner limits assumed): as the sequence (P03952 20-390 partner limits assumed) above
# Experimental: The ability of the compound to inhibit the enzyme activity of pre-activated plasma was assessed by addition of the compound after DXS stimulation. Aliquots of plasma (20 μL) were mixed with a 2.5 μL solution containing […] fluorogenic substrate (H-DPro-Phe-Arg-AFC) and a 2.5 μL solution of dextran sulphate (DXS; 100 μg/mL) which acted as an activator of the plasma kallikrein-kinin pathway. Enzyme activity was immediately measured by monitoring the accumulation of fluorescence liberated from the substrate by substrate cleavage over 16 minutes. At 3.5 minutes post DXS addition 5 μl of inhibitors or water control are were added into each well. The compound was tested at concentrations of 300, 1000 and 3000 nM. C1-INH at a concentration of 3000 nM and vehicle controls were also included.
# [11] = human, in vivo; cited from earlier work
compound,measurement,setting,value
N#Cc1cccc([C@@H](NCC2CC2)c2ccc(F)c(NC(=O)c3cc(C(F)(F)F)nn3-c3cccc(CN)c3)c2)c1 [berotralstat],gastrointestinal adverse effects,[1],more gastrointestinal adverse effects
"COCc1nn(Cc2ccc(Cn3ccccc3=O)cc2)cc1C(=O)NCc1nccc(OC)c1F [compound of Formula A, N-[(3-fluoro-4-methoxypyridin-2-yl)methyl]-3-(methoxymethyl)-1-({4-[(2-oxopyridin-1-yl)methyl]phenyl}methyl)pyrazole-4-carboxamide]",plasma exposure,[2],rapid and dose-dependent plasma exposure
same,serious adverse events,[3],No serious adverse events
same,tolerability signals,[3],no tolerability signals
same,median time for attacks to be rated better or higher (7TQ),[4],5 h
same,median time to onset of symptom relief on PGI-C (7TQ),[4],1.6 h
same,"median time to symptom relief, composite VAS score",[4],6 h
same,attacks rescued (use of rescue medication),[4]; at 12 hours,15.1%
same,use of rescue medication,[4]; at 24 hours,20.8%
same,attacks improved to none on PGI-S (5LS),[4]; within 12 hours,56.6%
same,attacks rated a little better or higher (7TQ),[4]; within 12 hours,83.0%
same,attacks rated better or higher (7TQ),[4]; within 12 hours,58.7%
same,attacks that do not worsen,[4]; within 12 hours,79.2%
same,attacks improved to none on PGI-S (5LS),[4]; within 24 hours,66.0%
same,attacks rated a little better or higher (7TQ),[4]; within 24 hours,84.9%
same,attacks rated better or higher (7TQ),[4]; within 24 hours,67.9%
same,attacks that do not worsen (5LS),[4]; within 24 hours,69.8%
same,"on-treatment drug-related TEAEs, number of events","[5]; Part 1, open-label, 600 mg",8
same,patients with on-treatment drug-related TEAEs,"[5]; Part 1, open-label, 600 mg",5 patients
same,"on-treatment drug-related TEAEs, number of events","[5]; Part 2, crossover, 600 mg",3
same,serious adverse events,[5]; phase 2 trial,no serious adverse events
same,withdrawals due to adverse events,[5]; phase 2 trial,no patients withdrew due to adverse events
same,discontinuations because of an AE,[6],no subjects were discontinued because of an AE
same,effects on the studied ECG parameters,[6],No clinically relevant effects
same,serious adverse events,[6],No serious adverse events
same,severity of all reported adverse events,[6],mild
"C1-INH: C1 inhibitor (C1-INH, Sigma Cat #E0518), used as a therapeutic benchmark for HAE [Compound C1-INH]",IC50,[7],50 nM
same,Kon,[8],40000 M⁻¹ s⁻¹
same,IC50,[9],1700 nM
same,inhibition of enzyme activity on addition after activation of plasma,[10],slower action
Ecallantide,anaphylactic reactions,[11],risks of anaphylactic reactions have been reported
